Test results as given in patent US4321265A, “7α-Methoxycephalosporins” (Toyama Chemical Co., Ltd., priority 1977, dated 1982).
≈ marks a conversion by molar mass, not a printed value. Like-named read-outs stand apart in the source and are kept apart here.

What was measured:
[1] = test system: Penicillinase (E. coli TK-3); experiment: Stability to β-lactamase, iodometry (Perret); format: biochemical; conditions: E. coli TK-3 penicillinase; PCG = 100; 30° C., pH 7.0
Experimental: (§1) The stability to β-lactamase was examined by iodometry at 30° C. by the method of Perret (Perret, C. J., "Iodometric assay of penicillinase", Nature, 174, 1012-1013 (1954)), except that a 0.1 M phosphate buffer solution (pH 7.0) was used in place of the 0.2 M phosphate buffer solution (pH 6.5). The stability of each compound was shown in Table 2 in terms of relative degree of hydrolysis, assuming the stability of Cephaloridin (CER) to cephalosporinase as 100 and the stability of Penicillin G (PCG) to penicillinase as 100.

[2] = test system: Penicillinase (K. pneumoniae Y-4); experiment: Stability to β-lactamase, iodometry (Perret); format: biochemical; conditions: K. pneumoniae Y-4 penicillinase; PCG = 100; 30° C., pH 7.0
Experimental: as §1

[3] = test system: Penicillinase (P. aeruginosa GN-3379); experiment: Stability to β-lactamase, iodometry (Perret); format: biochemical; conditions: P. aeruginosa GN-3379 penicillinase; PCG = 100; 30° C., pH 7.0
Experimental: as §1

[4] = target: T1, Cephalosporinase (S. marcescens W-8) (Serratia marcescens, UniProt P18539); experiment: Stability to β-lactamase, iodometry (Perret); format: biochemical; conditions: S. marcescens W-8 cephalosporinase; CER = 100; 30° C., pH 7.0
T1 construct: native preparation, details not in excerpts
Experimental: as §1

[5] = target: T2, Cephalosporinase (E. coli GN-5482) (Escherichia coli, UniProt P00811); experiment: Stability to β-lactamase, iodometry (Perret); format: biochemical; conditions: E. coli GN-5482 cephalosporinase; CER = 100; 30° C., pH 7.0
T2 construct: native preparation, details not in excerpts
Experimental: as §1

S. marcescens W-35 = experiment: Infection-protective activity in mice; format: in vivo, ICR-strain mice (male); conditions: subcutaneous, one hour after intraperitoneal inoculation; challenge dose 2.5 × 10^5 cells/mouse; ICR mice
Source text: Four-week old ICR-strain mice (male) in groups, each group consisting of five mice, were inoculated intraperitoneally with a prescribed quantity of a pathogenic bacterium suspended in 5% mucin. After one hour from the inoculation, the mice were subcutaneously administered with the test preparation to determine the infection-protective activity. The figures in Table 4 represent the protective activity in terms of ED50.

E. coli NIHJ = experiment: Minimum inhibitory concentration (MIC), Heart Infusion agar; format: cell-based; conditions: Escherichia coli, read-out: minimum inhibitory concentration (MIC)
Experimental: (§2) Antibacterial activities of the representative compounds (Ib) of the 7α-methoxycephalosporins according to this invention are shown in Table 1. [drawing 20]
(§3) The figures given in Table 1 represent the minimum inhibitory concentration (MIC in mcg/ml) of each compound, which was determined according to the method described in "Chemotherapy (Society of Chemotherapy, Japan), Vol. 16, 98-99 (1968)": A culture obtained by cultivating the test bacterium in a Heart Infusion broth (Eiken Kagaku Co.) was inoculated into a Heart Infusion agar medium (Eiken Kagaku Co.). After 20 hours of the incubation at 37° C., the growth of the bacterium was inspected to determine the minimum inhibitory concentration (MIC in mcg/ml). The inoculation rate of the bacterium was 10^4 cells/plate (10^6 cells/ml).
(§4) (1) Minimum inhibitory concentration (MIC in mcg/ml).

Ps. aeruginosa S-68 = experiment: as above; format: cell-based; conditions: Pseudomonas aeruginosa, read-out: minimum inhibitory concentration (MIC)
Experimental: as §2, §3, §4

Klebsiella spp. Y-72 = experiment: as above; format: cell-based; conditions: read-out: minimum inhibitory concentration (MIC)
Experimental: as §2, §3, §4

[6] = test system: C. freundii GN-346 (Cephalosporinase-producing bacterium); experiment: as above; format: cell-based; conditions: Citrobacter freundii, read-out: minimum inhibitory concentration (MIC)
Experimental: as §2, §3, §4

Ps. aeruginosa IFO-3445 = experiment: as above; format: cell-based; conditions: Pseudomonas aeruginosa, read-out: minimum inhibitory concentration (MIC)
Experimental: as §2, §3, §4

K. pneumoniae Y-50 = experiment: as above; format: cell-based; conditions: Klebsiella pneumoniae, read-out: minimum inhibitory concentration (MIC)
Experimental: as §2, §3, §4

[7] = test system: Acinetobacter caloaceticus A-6; experiment: as above; format: cell-based; conditions: read-out: minimum inhibitory concentration (MIC)
Experimental: as §2, §3, §4

Ser. marcescens W-8 = experiment: as above; format: cell-based; conditions: Serratia marcescens, read-out: minimum inhibitory concentration (MIC)
Experimental: as §2, §3, §4

Prot. vulgaris GN-76 = experiment: as above; format: cell-based; conditions: Proteus vulgaris, read-out: minimum inhibitory concentration (MIC)
Experimental: as §2, §3, §4

Ser. marcescens IID620 = experiment: as above; format: cell-based; conditions: Serratia marcescens, read-out: minimum inhibitory concentration (MIC)
Experimental: as §2, §3, §4

Ent. cloacae IID977 = experiment: as above; format: cell-based; conditions: Enterobacter cloacae, read-out: minimum inhibitory concentration (MIC)
Experimental: as §2, §3, §4

Citrobacter N-7 = experiment: as above; format: cell-based; conditions: read-out: minimum inhibitory concentration (MIC)
Experimental: as §2, §3, §4

[8] = test system: S. aureus F-19 (Penicillinase-producing bacterium); experiment: as above; format: cell-based; conditions: Staphylococcus aureus, read-out: minimum inhibitory concentration (MIC)
Experimental: as §2, §3, §4

Ser. marcescens W-35 = experiment: as above; format: cell-based; conditions: Serratia marcescens, W35, 20 h
Experimental: as §2
as §3, with “The inoculation rate of the bacterium was 10^4 cells/plate (10^6 cells/ml).” left out
as §4

[9] = E. coli NIHJ, 10^6 cells/ml, 20 hours, 37° C.
[10] = S68, Ps. aeruginosa S-68, 10^6 cells/ml, 20 hours, 37° C.
[11] = SPP.Y72, Klebsiella spp. Y-72, 10^6 cells/ml, 20 hours, 37° C.
[12] = GN346, C. freundii GN-346, 10^6 cells/ml, 20 hours, 37° C.
[13] = IFO3445, Ps. aeruginosa IFO-3445, 10^6 cells/ml, 20 hours, 37° C.
[14] = Y50, K. pneumoniae Y-50, 10^6 cells/ml, 20 hours, 37° C.
[15] = A6, Acinetobacter caloaceticus A-6, 10^6 cells/ml, 20 hours, 37° C.
[16] = W8, Ser. marcescens W-8, 10^6 cells/ml, 20 hours, 37° C.
[17] = GN76, Prot. vulgaris GN-76, 10^6 cells/ml, 20 hours, 37° C.
[18] = Ser. marcescens IID620, 10^6 cells/ml, 20 hours, 37° C.
[19] = Ent. cloacae IID977, 10^6 cells/ml, 20 hours, 37° C.
[20] = N7, Citrobacter N-7, 10^6 cells/ml, 20 hours, 37° C.
[21] = S. aureus F-19, 10^6 cells/ml, 20 hours, 37° C.
[22] = Ser. marcescens W-35, 10^6 cells/ml, 20 hours, 37° C. (Table 1), read-out: minimum inhibitory concentration (MIC)

T2 sequence (P00811 20-377): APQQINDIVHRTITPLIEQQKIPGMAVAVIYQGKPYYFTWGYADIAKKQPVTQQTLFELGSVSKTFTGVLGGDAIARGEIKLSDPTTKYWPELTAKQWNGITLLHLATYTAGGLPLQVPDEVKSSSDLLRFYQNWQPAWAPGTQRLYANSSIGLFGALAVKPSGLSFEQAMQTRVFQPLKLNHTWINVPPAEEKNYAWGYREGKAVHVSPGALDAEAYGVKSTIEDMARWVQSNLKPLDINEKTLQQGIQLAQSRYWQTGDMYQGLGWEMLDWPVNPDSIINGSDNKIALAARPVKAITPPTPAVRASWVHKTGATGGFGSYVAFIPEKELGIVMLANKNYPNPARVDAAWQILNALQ
T1 sequence (P18539 22-376): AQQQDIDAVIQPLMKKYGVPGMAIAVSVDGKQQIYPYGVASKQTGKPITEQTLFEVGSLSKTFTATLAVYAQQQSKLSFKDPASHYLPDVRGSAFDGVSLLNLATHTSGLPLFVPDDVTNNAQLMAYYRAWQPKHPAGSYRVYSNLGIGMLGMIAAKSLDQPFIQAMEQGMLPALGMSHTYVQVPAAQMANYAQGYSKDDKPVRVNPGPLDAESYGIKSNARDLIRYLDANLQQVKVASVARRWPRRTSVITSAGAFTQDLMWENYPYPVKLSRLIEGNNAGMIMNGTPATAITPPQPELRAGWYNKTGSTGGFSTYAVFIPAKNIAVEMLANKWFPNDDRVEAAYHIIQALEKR

SMILES | Stability to β-lactamase, relative degree of hydrolysis [1] | Stability to β-lactamase, relative degree of hydrolysis [2] | Stability to β-lactamase, relative degree of hydrolysis [3] | Stability to β-lactamase, relative degree of hydrolysis [4] | Stability to β-lactamase, relative degree of hydrolysis [5] | MIC (E. coli NIHJ; [9]) [µg/mL] | MIC (Ps. aeruginosa S-68; [10]) [µg/mL] | MIC (Klebsiella spp. Y-72; [11]) [µg/mL] | MIC [6, 12] [µg/mL] | MIC (Ps. aeruginosa IFO-3445; [13]) [µg/mL] | MIC (K. pneumoniae Y-50; [14]) [µg/mL] | MIC [7, 15] [µg/mL] | MIC (Ser. marcescens W-8; [16]) [µg/mL] | MIC (Prot. vulgaris GN-76; [17]) [µg/mL] | MIC (Ser. marcescens IID620; [18]) [µg/mL] | MIC (Ent. cloacae IID977; [19]) [µg/mL] | MIC (Citrobacter N-7; [20]) [µg/mL] | MIC [8, 21] [µg/mL] | MIC (Ser. marcescens W-35; [22]) [µg/mL] | also measured
Cc1nnc(SCC2=C(C(=O)O)N3C(=O)[C@@H](NC(=O)Cn4cnnn4)[C@H]3SC2)s1 [CEZ, Cefazolin] | 21 | 4 | 2 | 94 | 130 | – | – | – | – | – | – | – | – | – | – | – | – | – | – | –
CO[C@@]1(NC(=O)CSCC#N)C(=O)N2C(C(=O)O)=C(CSc3nnnn3C)CS[C@@H]21 [CS-1170, reference compound] | – | – | – | – | – | – | – | – | – | – | – | – | – | – | – | – | – | – | – | ED50 (infection-protective activity) (S. marcescens W-35): 15.1 mg/mouse; MIC (E. coli NIHJ; 20 h): 0.39 µg/mL (≈ 0.827 µM); MIC (Ps. aeruginosa S-68; S68, 20 h): ≥ 200 µg/mL; MIC (Klebsiella spp. Y-72; Klebsiella, SPP.Y72, 20 h): 12.5 µg/mL (≈ 26.5 µM); MIC ([6]; GN346, 20 h): ≥ 200 µg/mL; MIC (Ps. aeruginosa IFO-3445; IFO3445, 20 h): ≥ 200 µg/mL; MIC (K. pneumoniae Y-50; Y50, 20 h): 0.39 µg/mL (≈ 0.827 µM); MIC ([7]; Acinetobacter, A6, 20 h): 50 µg/mL (≈ 106 µM); MIC (Ser. marcescens W-8; W8, 20 h): ≥ 200 µg/mL; MIC (Prot. vulgaris GN-76; GN76, 20 h): 3.13 µg/mL (≈ 6.64 µM); MIC (Ser. marcescens IID620; IID620, 20 h): 3.13 µg/mL (≈ 6.64 µM); MIC (Ent. cloacae IID977; IID977, 20 h): ≥ 200 µg/mL; MIC (Citrobacter N-7; Citrobacter, N7, 20 h): 25 µg/mL (≈ 53 µM); MIC ([8]; 20 h): 1.56 µg/mL (≈ 3.31 µM); MIC (Ser. marcescens W-35; S. marcescens W-35, inoculated bacteria quantity 10^6 cells/ml (Table 4)): 100 µg/mL (≈ 212 µM); MIC (Ser. marcescens W-35; S. marcescens W-35, inoculated bacteria quantity 10^8 cells/ml (Table 4)): 200 µg/mL (≈ 424 µM); MIC (Ser. marcescens W-35; read-out: minimum inhibitory concentration (MIC), Ser. marcescens W-35, 10^6 cells/ml, 20 hours, 37° C. (Table 1)): 100 µg/mL (≈ 212 µM)
CCN1CCN(C(=O)N[C@@H](C(=O)N[C@]2(OC)C(=O)N3C(C(=O)O)=C(COC(C)=O)CS[C@@H]32)c2cccs2)C(=O)C1=O [OCOCH3, 7β-[D(-)-α-(4-ethyl-2,3-dioxo-1-piperazinecarboxamido)-α-(2-thienyl)-acetamido]-7α-methoxy-3-acetoxymethyl-Δ^3-cephem-4-carboxylic acid] | – | – | – | – | – | ≤ 0.1 | 50 (≈ 82 µM) | 6.25 (≈ 10.3 µM) | 100 (≈ 164 µM) | 50 (≈ 82 µM) | 1.56 (≈ 2.56 µM) | 25 (≈ 41 µM) | 100 (≈ 164 µM) | 1.56 (≈ 2.56 µM) | 3.13 (≈ 5.13 µM) | 50 (≈ 82 µM) | 3.13 (≈ 5.13 µM) | 6.25 (≈ 10.3 µM) | 50 (≈ 82 µM) | –
CC1(C)S[C@@H]2[C@H](NC(=O)Cc3ccccc3)C(=O)N2[C@H]1C(=O)O [PC-G, Penicillin G] | 100 | 100 | 100 | 21 | 22 | – | – | – | – | – | – | – | – | – | – | – | – | – | – | –
CCN1CCN(C(=O)NC(C(=O)N[C@]2(OC)C(=O)N3C(C(=O)O)=C(CSc4nnnn4C)CS[C@@H]32)c2cccs2)C(=O)C1=O (stereo partly shown) [drawing 22] | – | – | – | – | – | ≤ 0.1 | 12.5 (≈ 18.8 µM) | 6.25 (≈ 9.39 µM) | 25 (≈ 37.6 µM) | 12.5 (≈ 18.8 µM) | 0.39 (≈ 0.586 µM) | 12.5 (≈ 18.8 µM) | 25 (≈ 37.6 µM) | 0.2 (≈ 0.3 µM) | 0.78 (≈ 1.17 µM) | 25 (≈ 37.6 µM) | 0.78 (≈ 1.17 µM) | 3.13 (≈ 4.7 µM) | 6.25 (≈ 9.39 µM) | –
